{
  "source": "patent US20210045385A1",
  "about": "“PYRIDAZINONE-SUBSTITUTED KETOXIMES AS HERBICIDES” (FMC Corporation, priority 2018, published 2021)",
  "type_in_all_cases": "in vivo",
  "key": {"kochia (Bassia scoparia) [1]": {"system": "kochia (Bassia scoparia)", "assay": "Test C preemergence, visual plant response rating", "settings": "Test C, 0 is no effect, 100 is complete control", "how_it_was_run": "(§1)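 Visual injury on a 0 (no effect) to 100 (complete control) scale versus untreated controls, scored approximately 10 d after treatment under greenhouse conditions. Treatments used surfactant-containing non-phytotoxic solvent formulations, sprayed onto loam–sand soil preemergence or onto one- to two-leaf plants 2–10 cm tall postemergence.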"}, "[2]": {"system": "foxtail, giant (giant foxtail, Setaria faberi)", "assay": "Test C preemergence, visual plant response rating", "settings": "Test C, 0 is no effect, 100 is complete control", "how_it_was_run": "as §1"}, "[3]": {"system": "barnyardgrass (Echinochloa crus-galli)", "assay": "Test C preemergence, visual plant response rating", "settings": "Test C, 0 is no effect, 100 is complete control", "how_it_was_run": "as §1"}, "[4]": {"system": "pigweed (Amaranthus retroflexus)", "assay": "Test C preemergence, visual plant response rating", "settings": "Test C, 0 is no effect, 100 is complete control", "how_it_was_run": "as §1"}, "[5]": {"system": "ragweed (common ragweed, Ambrosia artemisiifolia)", "assay": "Test C preemergence, visual plant response rating", "settings": "Test C, 0 is no effect, 100 is complete control", "how_it_was_run": "as §1"}, "[6]": {"system": "Italian ryegrass (Lolium mutiflorum)", "assay": "Test C preemergence, visual plant response rating", "settings": "Test C, 0 is no effect, 100 is complete control", "how_it_was_run": "as §1"}, "kochia (Bassia scoparia) [7]": {"system": "kochia (Bassia scoparia)", "assay": "Test C postemergence, visual plant response rating", "how_it_was_run": "as §1"}, "[8]": {"system": "foxtail, giant (giant foxtail, Setaria faberi)", "assay": "Test C postemergence, visual plant response rating", "how_it_was_run": "as §1"}, "[9]": {"system": "blackgrass (Alopecurus myosuroides)", "assay": "Test C postemergence, visual plant response rating", "how_it_was_run": "as §1"}, "[10]": {"system": "barnyardgrass (Echinochloa crus-galli)", "assay": "Test C postemergence, visual plant response rating", "how_it_was_run": "as §1"}, "[11]": {"system": "pigweed (Amaranthus retroflexus)", "assay": "Test C postemergence, visual plant response rating", "how_it_was_run": "as §1"}, "[12]": {"system": "ragweed (common ragweed, Ambrosia artemisiifolia)", "assay": "Test C postemergence, visual plant response rating", "how_it_was_run": "as §1"}, "[13]": {"system": "Italian ryegrass (Lolium mutiflorum)", "assay": "Test C postemergence, visual plant response rating", "how_it_was_run": "as §1"}, "[14]": {"system": "galium (catchweed bedstraw, Galium aparine)", "assay": "Test C postemergence, visual plant response rating", "how_it_was_run": "as §1"}, "[15]": {"system": "wheat (Triticum aestivum)", "assay": "Test C postemergence, visual plant response rating", "how_it_was_run": "as §1"}, "corn (Zea mays)": {"system": "corn (Zea mays)", "assay": "Test C postemergence, visual plant response rating", "how_it_was_run": "as §1"}, "[16]": {"system": "duck salad (Heteranthera limosa)", "assay": "Test D flooded paddy test, visual plant response rating", "settings": "250 g ai/ha, scale 0 to 100 (0 no effect, 100 complete control), 13 to 15 d", "how_it_was_run": "(§2)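 Rating is visual, on a 0 (no effect) to 100 (complete control) scale versus controls, taken 13 to 15 d after treatment in a greenhouse. Treatment went into paddy water kept 3 cm above the soil surface, with plants at the 2-leaf stage.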"}, "rice (Oryza sativa)": {"system": "rice (Oryza sativa)", "assay": "Test D flooded paddy test, visual plant response rating", "settings": "250 g ai/ha, scale 0 to 100 (0 no effect, 100 complete control), 13 to 15 d", "how_it_was_run": "as §2"}, "[17]": {"system": "sedge umbrella (small-flower umbrella sedge, Cyperus difformis)", "assay": "Test D flooded paddy test, visual plant response rating", "settings": "250 g ai/ha, scale 0 to 100 (0 no effect, 100 complete control), 13 to 15 d", "how_it_was_run": "as §2"}, "[18]": {"system": "barnyardgrass (Echinochloa crus-galli)", "assay": "Test D flooded paddy test, visual plant response rating", "settings": "250 g ai/ha, scale 0 to 100 (0 no effect, 100 complete control), 13 to 15 d", "how_it_was_run": "as §2"}, "[19]": {"settings": "Test C, postemergence, 125 g ai/ha"}},
  "data": [
    {"molecule": "CO/N=C(/c1c(O)c(C)nn(C)c1=O)c1cc(SC)cc2ccccc12", "note": "[Compound 298]", "values": [
      {"measurement": "Kochia plant response rating (0 to 100 scale)", "setting": "kochia (Bassia scoparia) [1]; 31 g ai/ha", "value": 0},
      {"measurement": "Kochia plant response rating (0 to 100 scale)", "setting": "kochia (Bassia scoparia) [1]; 125 g ai/ha", "value": 0},
      {"measurement": "Foxtail, Giant plant response rating (0 to 100 scale)", "setting": "[2]; 31 g ai/ha", "value": 0},
      {"measurement": "Foxtail, Giant plant response rating (0 to 100 scale)", "setting": "[2]; 125 g ai/ha", "value": 0},
      {"measurement": "Barnyardgrass plant response rating (0 to 100 scale)", "setting": "[3]; 31 g ai/ha", "value": 0},
      {"measurement": "Barnyardgrass plant response rating (0 to 100 scale)", "setting": "[3]; 125 g ai/ha", "value": 0},
      {"measurement": "Pigweed plant response rating (0 to 100 scale)", "setting": "[4]; 31 g ai/ha", "value": 0},
      {"measurement": "Pigweed plant response rating (0 to 100 scale)", "setting": "[4]; 125 g ai/ha", "value": 10},
      {"measurement": "Ragweed plant response rating (0 to 100 scale)", "setting": "[5]; 31 g ai/ha", "value": 0},
      {"measurement": "Ragweed plant response rating (0 to 100 scale)", "setting": "[5]; 125 g ai/ha", "value": 0},
      {"measurement": "Ryegrass, Italian plant response rating (0 to 100 scale)", "setting": "[6]; 31 g ai/ha", "value": 0},
      {"measurement": "Ryegrass, Italian plant response rating (0 to 100 scale)", "setting": "[6]; 125 g ai/ha", "value": 0},
      {"measurement": "Kochia plant response rating (0 to 100 scale)", "setting": "kochia (Bassia scoparia) [7]; Postemergence, 31 g ai/ha", "value": 0},
      {"measurement": "Kochia plant response rating (0 to 100 scale)", "setting": "kochia (Bassia scoparia) [7]; [19]", "value": 10},
      {"measurement": "Foxtail, Giant plant response rating (0 to 100 scale)", "setting": "[8]; Postemergence, 31 g ai/ha", "value": 0},
      {"measurement": "Foxtail, Giant plant response rating (0 to 100 scale)", "setting": "[8]; [19]", "value": 0},
      {"measurement": "Blackgrass plant response rating (0 to 100 scale)", "setting": "[9]; Postemergence, 31 g ai/ha", "value": 0},
      {"measurement": "Blackgrass plant response rating (0 to 100 scale)", "setting": "[9]; [19]", "value": 20},
      {"measurement": "Barnyardgrass plant response rating (0 to 100 scale)", "setting": "[10]; Postemergence, 31 g ai/ha", "value": 0},
      {"measurement": "Barnyardgrass plant response rating (0 to 100 scale)", "setting": "[10]; [19]", "value": 0},
      {"measurement": "Pigweed plant response rating (0 to 100 scale)", "setting": "[11]; Postemergence, 31 g ai/ha", "value": 0},
      {"measurement": "Pigweed plant response rating (0 to 100 scale)", "setting": "[11]; [19]", "value": 40},
      {"measurement": "Ragweed plant response rating (0 to 100 scale)", "setting": "[12]; Postemergence, 31 g ai/ha", "value": 0},
      {"measurement": "Ragweed plant response rating (0 to 100 scale)", "setting": "[12]; [19]", "value": 10},
      {"measurement": "Ryegrass, Italian plant response rating (0 to 100 scale)", "setting": "[13]; Postemergence, 31 g ai/ha", "value": 0},
      {"measurement": "Ryegrass, Italian plant response rating (0 to 100 scale)", "setting": "[13]; [19]", "value": 0},
      {"measurement": "Galium plant response rating (0 to 100 scale)", "setting": "[14]; Postemergence, 31 g ai/ha", "value": 0},
      {"measurement": "Galium plant response rating (0 to 100 scale)", "setting": "[14]; [19]", "value": 30},
      {"measurement": "Wheat plant response rating (0 to 100 scale)", "setting": "[15]; Postemergence, 31 g ai/ha", "value": 0},
      {"measurement": "Wheat plant response rating (0 to 100 scale)", "setting": "[15]; [19]", "value": 0},
      {"measurement": "Corn plant response rating (0 to 100 scale)", "setting": "corn (Zea mays); Postemergence, 31 g ai/ha", "value": 0},
      {"measurement": "Corn plant response rating (0 to 100 scale)", "setting": "corn (Zea mays); [19]", "value": 0},
      {"measurement": "Plant response rating, Ducksalad (Flood)", "setting": "[16]", "value": 0},
      {"measurement": "Plant response rating, Rice (Flood)", "setting": "rice (Oryza sativa)", "value": 0},
      {"measurement": "Plant response rating, Sedge, Umbrella (Flood)", "setting": "[17]", "value": 0},
      {"measurement": "Plant response rating, Barnyardgrass (Flood)", "setting": "[18]", "value": 0}
    ]}
  ]
}
